Tests used:
BCL2 = BCL2 levels by intracellular flow cytometry in isolated CLL cells; assay type: cell-based, human; details: 200 nM, 12 and 18 hours; isolated CLL cells (n = 6)
Protocol: The dysregulation of BCL2 expression in primary CLL by EC-7072 was evaluated by: • (i) incubating isolated CLL cells (n = 6) from patients with CLL following treatment with EC-7072 (200 nM) for 6 hours and extracting total RNA. Relative expression of BLC2 was determined by qPCR to obtain the mean relative expression to the control (DMSO) condition (Figure 6F); • (ii) incubating isolated CLL cells (n = 6) following treatment with 200 nM EC-7072 for 12 and 18 hours. BCL2 levels were evaluated by intracellular flow cytometry (Figure 6G); • (iii) incubating isolated T cells (n = 3) from patients with CLL following treatment with EC-7072 (200 nM) for 6 hours and extracting total RNA. Relative expression of BLC2 was determined by qPCR to obtain the mean relative expression to the control (DMSO) condition (Figure 6H); • (iv) incubating PBMCs (Figure 6I) and isolated T cells (Figure 6J) from patients with CLL (n = 3) following treatment with 200 nM EC-7072 for 24 hours. T-cell death and apoptosis were assessed by DiOC6(3)/PI staining to obtain percentages of viable [DiOC6(3)^+] cells and the mean percentages of apoptotic [DiOC6(3)^low PI^-] and dead [PI^+] cells.

OP9 cells = experiment: Viability of OP9 stromal cells exposed to EC-7072; assay type: cell-based; details: exposure to EC-7072 for 24 hours
[1] = tested on: T cells isolated from patients with CLL; experiment: T cell apoptosis by Annexin V/PI staining; assay type: cell-based, human; details: 200 nM, 24 hours; n = 3
Protocol: Cell viability and apoptosis were evaluated by double-staining with the mitochondrial inner transmembrane potential (ΔΨm)-sensitive dye DiOC6(3) (3,3'-dihexyloxacarbocyanine iodide; Sigma-Aldrich) and the exclusion dye propidium iodide (PI; Immunostep), allowing identification of apoptotic [DiOC6(3)^low PI^-] and dead [PI^+] cells as per Proc. Natl. Acad. Sci. U.S.A. (2014) 111(8):3020-3025 and Methods Mol. Biol. (2016) 1419:1-16. Briefly, PBMCs were resuspended in culture medium containing 20 nM DiOC6(3) and incubated for 30 minutes at 37 °C. Then, PI (1 µg/mL) was added and cells were further incubated for 10 minutes at room temperature (RT). Cells were analyzed by flow cytometry considering DiOC6(3)^+PI^- cells as viable. In some experiments, apoptosis was evaluated by staining with Annexin V/PI. […]
The induction of caspase-dependent apoptosis on primary CLL cells by EC-7072 was assessed by: • (i) incubating PBMCs isolated from patients with CLL (n = 6) following treatment with increasing concentrations of EC-7072 (0 - 400 nM) for 24 hours. Apoptosis of leukemia cells was evaluated by cytofluorometric assessment of Annexin V/PI staining to obtain percentages of apoptotic [Annexin V^+ PI^-] and dead [PI^+] cells (Figure 3A); • (ii) incubating PBMCs and T cells isolated from patients with CLL (n = 3) following treatment with EC-7072 (200 nM) for 24 hours. […]

CO[C@@H]([C@@H]1Cc2cc3cc(O[C@H]4C[C@@H](O[C@H]5C[C@@H](O)[C@H](O)[C@@H](C)O5)[C@H](O)[C@@H](C)O4)c(C)c(O)c3c(O)c2C(=O)[C@H]1O[C@H]1C[C@@H](O[C@H]2C[C@@H](O[C@H]3C[C@](C)(O)[C@H](O)[C@@H](C)O3)[C@@H](O)[C@@H](C)O2)[C@H](O)[C@@H](C)O1)[C@@H](O)C(C)=O [EC-7072, mithramycin SK]
protein levels of BCL2 (BCL2): mild, but significant, decrease
viability of OP9 cells (OP9 cells): did not affect their viability
T cell apoptosis (Annexin V/PI) [1]: no significant apoptosis

From EP3797781A1, “USE OF EC-7072 AND SYNERGIC COMPOSITIONS THEREOF IN TREATMENT OF CHRONIC LYMPHOCYTIC LEUKEMIA” (priority 2019, dated 2021)
